From patent US20080009418A1, “Selective Inhibitors” (Alchemia LTD., priority 2004, published 2008)

Columns and labels:
[1] = target: T1, Human Melanocortin (MC4) (Homo sapiens, UniProt P32245); assay: Radioligand binding, human melanocortin MC4 membranes, FlashPlate, [125I]-NDP-αMSH; conditions: compound at 10 μM, [125I]-NDP-αMSH
T1 construct: purchased Perkin Elmer Biosignal
In short: (§1)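 Cloned human receptor membranes were coated onto FlashPlate wells and incubated with radioligand and compound (added from a 0.5 mM DMSO daughter plate) for 1 hour at room temperature in the dark. Scintillation counting gave percent inhibition, with DMSO defining total and reference ligand defining non-specific binding.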

[2] = target: T2, Human neurokinin (NK1) (Homo sapiens, UniProt P25103); assay: Radioligand binding, human neurokinin NK1 membranes, filtration, [125I]-Substance P; conditions: compound at 10 μM, [125I]-Substance P
T2 construct: purchased Perkin Elmer Biosignal
In short: (§2)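 Membranes from cloned human receptors were incubated with compound and radioligand for 1 hour at room temperature. Bound ligand was collected on 0.3% PEI-soaked filters, washed with cold 50 mM Tris-HCl pH 7.4, and counted by scintillation. Percent inhibition was computed against DMSO totals and reference-ligand nonspecific wells.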

[3] = target: T3, Human δ-opioid (DOP) (Homo sapiens, UniProt P41143); assay: Radioligand binding, human δ-opioid (DOP) membranes, FlashPlate, [3H]-Bremazocine; conditions: compound at 10 μM, [3H]-Bremazocine
T3 construct: purchased Perkin Elmer Biosignal
In short: as §1

[4] = target: T4, Human melanocortin (MC5) (Homo sapiens, UniProt P33032); assay: Radioligand binding, human melanocortin MC5 membranes, FlashPlate, [125I]-NDP-αMSH; conditions: compound at 10 μM, [125I]-NDP-αMSH
T4 construct: purchased Perkin Elmer Biosignal
In short: as §1

[5] = target: T5, Human neuropeptide Y (NPY-Y1) (Homo sapiens, UniProt P25929); assay: Radioligand binding, human neuropeptide Y NPY-Y1 membranes, FlashPlate, [125I]-PYY; conditions: compound at 10 μM, [125I]-PYY
T5 construct: purchased Perkin Elmer Biosignal
T5 sequence (P25929 1-384): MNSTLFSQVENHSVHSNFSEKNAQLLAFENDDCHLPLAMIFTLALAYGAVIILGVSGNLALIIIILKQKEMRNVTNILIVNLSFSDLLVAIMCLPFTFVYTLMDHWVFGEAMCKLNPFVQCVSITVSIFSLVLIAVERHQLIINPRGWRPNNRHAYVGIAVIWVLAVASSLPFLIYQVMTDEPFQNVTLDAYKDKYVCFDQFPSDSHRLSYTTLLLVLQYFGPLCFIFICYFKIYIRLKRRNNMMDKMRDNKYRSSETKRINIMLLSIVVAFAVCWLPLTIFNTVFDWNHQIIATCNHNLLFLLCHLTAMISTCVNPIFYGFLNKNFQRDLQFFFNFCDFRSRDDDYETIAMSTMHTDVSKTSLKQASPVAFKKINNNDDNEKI
In short: as §1

[6] = target: T6, Human μ-opioid (MOP) (Homo sapiens, UniProt P35372); assay: Radioligand binding, human μ-opioid (MOP) membranes, FlashPlate, [3H]-Naloxone; conditions: compound at 10 μM, [3H]-Naloxone
T6 construct: purchased Perkin Elmer Biosignal
In short: as §1

[7] = target: T7, Human Melanocortin (MC3) (Homo sapiens, UniProt P41968); assay: Radioligand binding, human melanocortin MC3 membranes, FlashPlate, [125I]-NDP-αMSH; conditions: compound at 10 μM, [125I]-NDP-αMSH
T7 construct: purchased Perkin Elmer Biosignal
In short: as §1

[8] = target: T8, Human opioid (ORL1) (Homo sapiens, UniProt P41146); assay: Radioligand binding, human opioid ORL1 membranes, FlashPlate, [125I]-Nociceptin; conditions: compound at 10 μM, [125I]-Nociceptin
T8 construct: purchased Perkin Elmer Biosignal
In short: as §1

[9] = target: T9, Human κ-Opioid (KOP) (Homo sapiens, UniProt P41145); assay: Radioligand binding, human κ-opioid (KOP) membranes, filtration, [3H]-Diprenorphine; conditions: compound at 10 μM, [3H]-Diprenorphine
T9 construct: purchased Perkin Elmer Biosignal
In short: as §2

[10] = target: T10, Human melanin-concentrating hormone (MCH1) (Homo sapiens, UniProt Q99705); assay: Radioligand binding, human melanin-concentrating hormone MCH1 membranes, FlashPlate, [125I]-S36057; conditions: compound at 10 μM; for A6: inhibition of radioligand binding, human melanin-concentrating hormone (MCH1): [125I]-S36057
T10 construct: purchased Perkin Elmer Biosignal
In short: as §1

[11] = target: T11, Mouse urotensin (mUR2) (Mus musculus, UniProt Q8VIH9); assay: Radioligand binding, mouse urotensin mUR2 membranes, FlashPlate, [125I]-Urotensin II; conditions: compound at 10 μM, [125I]-Urotensin II
T11 construct: purchased Perkin Elmer Biosignal
T11 sequence (Q8VIH9 1-385): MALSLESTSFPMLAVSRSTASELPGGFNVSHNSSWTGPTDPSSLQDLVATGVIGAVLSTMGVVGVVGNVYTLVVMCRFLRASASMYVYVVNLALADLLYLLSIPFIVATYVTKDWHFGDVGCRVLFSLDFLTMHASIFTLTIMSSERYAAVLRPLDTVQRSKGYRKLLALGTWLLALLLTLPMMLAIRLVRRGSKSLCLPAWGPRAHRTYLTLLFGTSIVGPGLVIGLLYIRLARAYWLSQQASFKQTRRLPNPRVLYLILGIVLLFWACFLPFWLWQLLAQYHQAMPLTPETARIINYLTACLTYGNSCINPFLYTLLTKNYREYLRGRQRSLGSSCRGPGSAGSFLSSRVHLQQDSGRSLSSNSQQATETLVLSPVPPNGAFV
In short: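 Cloned mouse urotensin (mUR2) receptor membranes from Perkin Elmer Biosignal were immobilized in FlashPlate microplates using a proprietary coating. Each well got 19.5 μl buffer, then 0.5 μl of DMSO, reference ligand, or compound. Adding 5 μl of [125I]-Urotensin II, diluted to 5× final concentration in binding buffer, started binding. Plates were sealed with TopSeal-A and incubated 1 hour at room temperature in the dark. Wells were counted for 30 seconds each on a TopCount after a 60-second delay, and percentage inhibition was calculated.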

T7 sequence (P41968 whole entry): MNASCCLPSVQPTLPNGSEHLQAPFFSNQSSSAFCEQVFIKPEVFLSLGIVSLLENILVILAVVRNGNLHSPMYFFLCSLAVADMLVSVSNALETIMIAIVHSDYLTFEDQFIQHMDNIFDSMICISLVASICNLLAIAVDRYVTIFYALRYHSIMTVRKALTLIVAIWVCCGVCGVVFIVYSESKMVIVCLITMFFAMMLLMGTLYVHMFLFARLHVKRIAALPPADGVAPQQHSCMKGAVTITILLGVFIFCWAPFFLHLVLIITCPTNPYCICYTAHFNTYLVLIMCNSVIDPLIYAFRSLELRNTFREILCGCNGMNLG
T2 sequence (P25103 whole entry): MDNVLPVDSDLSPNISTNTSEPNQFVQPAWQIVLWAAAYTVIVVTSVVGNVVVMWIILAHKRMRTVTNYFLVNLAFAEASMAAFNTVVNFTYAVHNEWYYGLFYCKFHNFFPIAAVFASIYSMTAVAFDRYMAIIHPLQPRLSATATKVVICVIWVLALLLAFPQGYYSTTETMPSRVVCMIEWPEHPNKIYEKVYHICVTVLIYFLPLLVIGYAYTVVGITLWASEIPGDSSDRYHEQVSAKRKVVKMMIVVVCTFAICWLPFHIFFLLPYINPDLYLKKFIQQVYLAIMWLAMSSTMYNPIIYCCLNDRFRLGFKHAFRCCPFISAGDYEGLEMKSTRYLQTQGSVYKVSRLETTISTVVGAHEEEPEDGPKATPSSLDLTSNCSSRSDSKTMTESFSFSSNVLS
T4 sequence (P33032 whole entry): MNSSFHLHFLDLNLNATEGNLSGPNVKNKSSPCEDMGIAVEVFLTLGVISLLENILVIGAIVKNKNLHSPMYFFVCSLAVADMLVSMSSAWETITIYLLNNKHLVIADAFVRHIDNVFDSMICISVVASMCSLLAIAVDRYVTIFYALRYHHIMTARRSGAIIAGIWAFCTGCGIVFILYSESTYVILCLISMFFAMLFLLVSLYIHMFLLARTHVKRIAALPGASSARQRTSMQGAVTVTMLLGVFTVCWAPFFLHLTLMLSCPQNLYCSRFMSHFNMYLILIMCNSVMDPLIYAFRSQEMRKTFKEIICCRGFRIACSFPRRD
T9 sequence (P41145 whole entry): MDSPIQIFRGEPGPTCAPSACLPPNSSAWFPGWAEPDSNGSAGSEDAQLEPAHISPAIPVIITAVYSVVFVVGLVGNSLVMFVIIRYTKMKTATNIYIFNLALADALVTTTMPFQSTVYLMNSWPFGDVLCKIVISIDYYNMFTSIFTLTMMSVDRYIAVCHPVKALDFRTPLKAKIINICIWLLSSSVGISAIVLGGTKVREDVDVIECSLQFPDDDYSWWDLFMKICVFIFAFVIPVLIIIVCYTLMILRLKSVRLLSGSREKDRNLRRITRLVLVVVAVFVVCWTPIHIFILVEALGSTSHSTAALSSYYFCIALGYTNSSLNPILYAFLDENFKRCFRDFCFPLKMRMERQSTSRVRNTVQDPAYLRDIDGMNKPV
T8 sequence (P41146 whole entry): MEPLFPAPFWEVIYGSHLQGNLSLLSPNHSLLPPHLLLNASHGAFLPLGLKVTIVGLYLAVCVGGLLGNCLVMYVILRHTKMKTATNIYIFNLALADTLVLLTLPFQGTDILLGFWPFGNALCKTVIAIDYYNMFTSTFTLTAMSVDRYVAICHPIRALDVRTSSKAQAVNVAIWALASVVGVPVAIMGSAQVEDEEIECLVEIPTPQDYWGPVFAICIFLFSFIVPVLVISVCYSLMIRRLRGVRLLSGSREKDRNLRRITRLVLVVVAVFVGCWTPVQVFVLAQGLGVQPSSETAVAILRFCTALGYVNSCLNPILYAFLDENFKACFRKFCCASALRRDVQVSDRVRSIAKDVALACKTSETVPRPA
T3 sequence (P41143 whole entry): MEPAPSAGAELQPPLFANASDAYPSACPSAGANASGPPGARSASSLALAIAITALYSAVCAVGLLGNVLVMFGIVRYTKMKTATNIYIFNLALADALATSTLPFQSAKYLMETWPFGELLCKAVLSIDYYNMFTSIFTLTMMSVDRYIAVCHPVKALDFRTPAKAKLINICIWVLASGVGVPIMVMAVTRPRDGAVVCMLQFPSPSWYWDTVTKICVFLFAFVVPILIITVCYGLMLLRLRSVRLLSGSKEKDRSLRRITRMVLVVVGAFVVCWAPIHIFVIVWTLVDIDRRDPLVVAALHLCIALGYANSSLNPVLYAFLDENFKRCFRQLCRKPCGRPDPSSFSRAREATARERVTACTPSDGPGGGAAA
T10 sequence (Q99705 whole entry): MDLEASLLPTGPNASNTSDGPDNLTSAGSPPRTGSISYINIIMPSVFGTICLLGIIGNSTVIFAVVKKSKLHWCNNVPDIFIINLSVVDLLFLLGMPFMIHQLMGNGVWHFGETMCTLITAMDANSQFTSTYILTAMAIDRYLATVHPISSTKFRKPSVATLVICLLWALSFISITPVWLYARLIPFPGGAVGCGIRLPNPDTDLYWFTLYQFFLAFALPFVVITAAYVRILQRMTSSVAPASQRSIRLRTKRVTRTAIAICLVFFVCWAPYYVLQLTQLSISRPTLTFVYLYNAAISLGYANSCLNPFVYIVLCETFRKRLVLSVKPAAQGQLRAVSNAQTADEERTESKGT
T6 sequence (P35372 whole entry): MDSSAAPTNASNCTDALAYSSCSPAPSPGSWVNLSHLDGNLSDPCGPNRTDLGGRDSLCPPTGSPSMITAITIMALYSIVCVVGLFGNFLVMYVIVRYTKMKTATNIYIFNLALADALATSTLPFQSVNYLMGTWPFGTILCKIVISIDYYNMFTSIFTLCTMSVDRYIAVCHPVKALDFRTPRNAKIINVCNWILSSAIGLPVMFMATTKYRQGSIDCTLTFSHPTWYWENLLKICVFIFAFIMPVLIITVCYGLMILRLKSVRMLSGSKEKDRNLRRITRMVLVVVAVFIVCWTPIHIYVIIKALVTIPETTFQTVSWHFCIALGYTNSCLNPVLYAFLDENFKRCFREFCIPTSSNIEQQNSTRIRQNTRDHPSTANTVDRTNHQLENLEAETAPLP
T1 sequence (P32245 whole entry): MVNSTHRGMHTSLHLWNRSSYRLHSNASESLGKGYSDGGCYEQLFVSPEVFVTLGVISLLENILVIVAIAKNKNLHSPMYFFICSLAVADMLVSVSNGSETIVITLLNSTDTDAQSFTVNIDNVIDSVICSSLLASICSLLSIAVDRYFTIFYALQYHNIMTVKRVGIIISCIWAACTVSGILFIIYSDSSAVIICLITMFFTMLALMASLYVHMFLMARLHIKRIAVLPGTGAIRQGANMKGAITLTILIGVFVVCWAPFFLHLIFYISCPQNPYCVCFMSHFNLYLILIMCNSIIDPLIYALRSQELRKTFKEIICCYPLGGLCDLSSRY

## N=C(N)NCC(=O)N[C@H]1C(OCc2ccc(Cl)cc2)O[C@H](COCc2ccccc2)[C@@H](O)[C@@H]1OCc1ccc(-c2ccccc2)cc1 (stereo partly drawn) [compound 518]
[1]; 10 µM
  A4: inhibition of radioligand binding, human melanocortin (MC4): − (“−” indicates less than 50% inhibition at 10 μM)
[2]
  A8: inhibition of radioligand binding, human neurokinin (NK1): + (“+” indicates greater than 50% inhibition at 10 μM)
[3]
  A1: inhibition of radioligand binding, human δ-opioid (DOP): − (“−” indicates less than 50% inhibition at 10 μM)
[4]; 10 µM
  A5: inhibition of radioligand binding, human melanocortin (MC5): − (“−” indicates less than 50% inhibition at 10 μM)
[5]
  A9: inhibition of radioligand binding, human neuropeptide Y (NPY-Y1): − (“−” indicates less than 50% inhibition at 10 μM)
[6]
  A7: inhibition of radioligand binding, human μ-opioid (MOP): − (“−” indicates less than 50% inhibition at 10 μM)
[7]; 10 µM
  A3: inhibition of radioligand binding, human melanocortin (MC3): − (“−” indicates less than 50% inhibition at 10 μM)
[8]
  A10: inhibition of radioligand binding, human opioid (ORL1): − (“−” indicates less than 50% inhibition at 10 μM)
[9]
  A2: inhibition of radioligand binding, human κ-opioid (KOP): − (“−” indicates less than 50% inhibition at 10 μM)
[10]; 10 µM
  A6: inhibition of radioligand binding, human melanin-concentrating hormone (MCH1): − (“−” indicates less than 50% inhibition at 10 μM)
[11]
  A11: inhibition of radioligand binding, mouse urotensin (mUR2): − (“−” indicates less than 50% inhibition at 10 μM)

## NCCC(=O)NC1C(OCc2ccccc2)OC(COCc2ccc(Cl)cc2)C(O)C1OCc1ccccc1 (stereo not drawn) [compound 371]
[1]
  A4: inhibition of radioligand binding, human melanocortin (MC4): − (“−” indicates less than 50% inhibition at 10 μM)
[2]
  A8: inhibition of radioligand binding, human neurokinin (NK1): + (“+” indicates greater than 50% inhibition at 10 μM)
[3]
  A1: inhibition of radioligand binding, human δ-opioid (DOP): − (“−” indicates less than 50% inhibition at 10 μM)
[4]
  A5: inhibition of radioligand binding, human melanocortin (MC5): − (“−” indicates less than 50% inhibition at 10 μM)
[5]
  A9: inhibition of radioligand binding, human neuropeptide Y (NPY-Y1): − (“−” indicates less than 50% inhibition at 10 μM)
[6]
  A7: inhibition of radioligand binding, human μ-opioid (MOP): − (“−” indicates less than 50% inhibition at 10 μM)
[7]
  A3: inhibition of radioligand binding, human melanocortin (MC3): − (“−” indicates less than 50% inhibition at 10 μM)
[8]
  A10: inhibition of radioligand binding, human opioid (ORL1): − (“−” indicates less than 50% inhibition at 10 μM)
[9]
  A2: inhibition of radioligand binding, human κ-opioid (KOP): − (“−” indicates less than 50% inhibition at 10 μM)
[10]
  A6: inhibition of radioligand binding, human melanin-concentrating hormone (MCH1): − (“−” indicates less than 50% inhibition at 10 μM)
[11]
  A11: inhibition of radioligand binding, mouse urotensin (mUR2): − (“−” indicates less than 50% inhibition at 10 μM)

## NCCC(=O)N[C@H]1C(OCc2ccc3ccccc3c2)O[C@H](COCc2ccccc2)[C@@H](O)[C@@H]1OCc1ccc(Cl)cc1 (stereo partly drawn) [compound 439]
[1]; human MC4 membranes, 10 µM
  A4: inhibition of radioligand binding: + (“+” indicates greater than 50% inhibition at 10 μM)
[2]; human NK1 membranes
  A8: inhibition of radioligand binding: + (“+” indicates greater than 50% inhibition at 10 μM)
[3]; human DOP membranes
  A1: inhibition of radioligand binding: − (“−” indicates less than 50% inhibition at 10 μM)
[4]; human MC5 membranes, 10 µM
  A5: inhibition of radioligand binding: + (“+” indicates greater than 50% inhibition at 10 μM)
[5]; human NPY-Y1 membranes
  A9: inhibition of radioligand binding: − (“−” indicates less than 50% inhibition at 10 μM)
[6]; human MOP membranes
  A7: inhibition of radioligand binding: − (“−” indicates less than 50% inhibition at 10 μM)
[7]; human MC3 membranes
  A3: inhibition of radioligand binding: − (“−” indicates less than 50% inhibition at 10 μM)
[8]; human ORL1 membranes
  A10: inhibition of radioligand binding: − (“−” indicates less than 50% inhibition at 10 μM)
[9]; human KOP membranes
  A2: inhibition of radioligand binding: − (“−” indicates less than 50% inhibition at 10 μM)
[10]; [125I]-S36057, human MCH1 membranes, 10 µM
  A6: inhibition of radioligand binding: − (“−” indicates less than 50% inhibition at 10 μM)
[11]; mouse mUR2 membranes
  A11: inhibition of radioligand binding: − (“−” indicates less than 50% inhibition at 10 μM)
